In patent US11207312B2, “Metallo-beta-lactamase inhibitors and methods of use thereof” (priority 2017, dated 2021):

Experiments:
[1] = target: VIM-1 (Pseudomonas aeruginosa (strain ATCC 15692 / DSM 22644 / CIP 104116 / JCM 14847 / LMG 12228 / 1C / PRS 101 / PAO1), UniProt A0A0F7KYQ8); test: biochemical; conditions: CCF2-FA fluorescence assay, 2 hours at 25° C.; read-out: VIM1 IC50
Summary of the method: (§1)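 In pH 7 phosphate buffer (100 mM) with 10 μM ZnSO4 and 0.005% Tween-20, CCF2-FA hydrolysis (1.25 μM) by 1 pM NDM-1, 2 pM IMP-1 or 30 pM VIM-1 was run 2 h at 25° C with inhibitor from 20 to 0.00063 μM. Ex 405/em 460 nm signal fitted to a 4-parameter curve for IC50.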

[2] = target: IMP-1 (Serratia marcescens, UniProt P52699); test: biochemical; conditions: CCF2-FA fluorescence assay, 2 hours at 25° C.; read-out: IMP1 IC50
Sequence of IMP-1 (P52699 whole entry, looked up, species assumed): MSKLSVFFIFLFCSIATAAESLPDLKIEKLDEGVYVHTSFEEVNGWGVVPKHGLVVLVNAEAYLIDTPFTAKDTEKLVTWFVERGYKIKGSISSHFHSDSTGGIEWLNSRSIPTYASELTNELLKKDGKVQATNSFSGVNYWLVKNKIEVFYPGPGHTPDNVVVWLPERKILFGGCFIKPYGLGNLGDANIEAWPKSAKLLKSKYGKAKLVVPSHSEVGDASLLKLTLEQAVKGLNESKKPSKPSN
Summary of the method: as §1

[3] = system: Serratia marcescens expressing IMP-1 (CL5741); assay type: cell-based; conditions: with imipenem 1 μg/ml; 95% inhibition of bacterial growth
Summary of the method: (§2)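 Read-out is absorbance after 22–24 h at 35 °C, with MITC95 taken as the lowest inhibitor concentration that, alongside imipenem at 1 μg/ml, suppresses 95% of bacterial growth. Inocula came from saline-suspended colonies diluted 1:100 into 1.1× CAMHB.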

[4] = system: Escherichia coli expressing NDM-1 (CLB30016); assay type: cell-based; conditions: with imipenem 1 μg/ml; 95% inhibition of bacterial growth
Summary of the method: as §2

[5] = system: Klebsiella pneumoniae expressing VIM-1 (IHMA599644); assay type: cell-based; conditions: with imipenem 1 μg/ml; 95% inhibition of bacterial growth
Summary of the method: as §2

[6] = target: NDM-1 (Klebsiella pneumoniae, UniProt C7C422); test: biochemical; assay type: biochemical; conditions: CCF2-FA fluorescence assay, 2 hours at 25° C.
Sequence of NDM-1 (C7C422 whole entry, looked up, species assumed): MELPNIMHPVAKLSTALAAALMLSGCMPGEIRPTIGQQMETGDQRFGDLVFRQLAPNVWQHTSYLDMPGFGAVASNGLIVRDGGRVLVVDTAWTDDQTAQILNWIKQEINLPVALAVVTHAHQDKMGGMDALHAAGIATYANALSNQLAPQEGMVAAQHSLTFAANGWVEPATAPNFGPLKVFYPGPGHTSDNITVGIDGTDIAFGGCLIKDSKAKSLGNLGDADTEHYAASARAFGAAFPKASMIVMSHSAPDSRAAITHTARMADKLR
Summary of the method: as §1

[7] = system: P. aeruginosa MB9798 (efflux+, IMP-1 plasmid); conditions: for MB9798 MITC95 P. aeruginosa uM Efflux WT: efflux + (MB9798) strain, imipenem at 2 μg/mL, in the presence of a class A, C, D serine β-lactamase inhibitor closely related to relebactam; for Efflux ratio: fold difference between efflux+ (MB9798) and efflux− (MB9799) strains
Summary of the method: (§3)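 Isogenic P. aeruginosa PAO1 strains (efflux+ and multiple-efflux-pump-disrupted) carrying plasmid IMP-1, with inducible AmpC, tested by broth microdilution. Imipenem and/or ceftazidime fixed, usually at CLSI breakpoint, plus fixed class A/C β-lactamase inhibitor; titrated MBL inhibitor concentration restoring susceptibility recorded and compared between strains as efflux fold difference.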

[8] = system: P. aeruginosa MB9799 (efflux-, IMP-1 plasmid); assay type: cell-based, Pseudomonas aeruginosa; conditions: efflux − (MB9799) strain; imipenem at 2 μg/mL; in the presence of a class A, C, D serine β-lactamase inhibitor closely related to relebactam
Summary of the method: as §3

[9] = target: VIM-2 (Escherichia coli, UniProt Q5U7L7); test: biochemical; conditions: CCF2-FA fluorescence assay; read-out: VIM2 IC50

SMILES	IC50 [1] [nM]	IC50 [2] [nM]	CL5741 S. marcescens MITC95 IMP [3] [µM]	CLB30016 E. coli MITC95 NDM [4] [µM]	IHMA599644 K. pneumoniae MITC95 VIM [5] [µM]	IC50 [6] [nM]	MB9798 MITC95 P. aeruginosa uM Efflux WT [7] [µM]	Efflux ratio [7]	MB9799 MITC95 P. aeruginosa uM Efflux Mutant [8] [µM]	IC50 [9] [nM]
NC[C@@H](O)CNS(=O)(=O)c1ccc(N2CCC[C@@H](NCCO)C2)c(-c2nn[nH]n2)c1S(N)(=O)=O [Example 130, N1-((R)-3-amino-2-hydroxypropyl)-4-((R)-3-((2-hydroxyethyl)amino)piperidin-1-yl)-3-(2H-tetrazol-5-yl)benzene-1,2-disulfonamide bis(2,2,2-trifluoroacetate)]	4.21	128	3.13	0.78	1.56	32	12.50	4.00	3.13	5.47
NS(=O)(=O)c1c(S(=O)(=O)N[C@@H]2CCNC2)ccc(N2CCC(Cc3ccccn3)CC2)c1-c1nnn[nH]1 [Example 106, 4-[4-(pyridin-2-ylmethyl)piperidin-1-yl]-N1-[(3R)-pyrrolidin-3-yl]-3-(1H-tetrazol-5-yl)benzene-1,2-disulfonamide]	0.1	0.12	3.13	6.25	6.25	0.06	50.00	16.00	3.13	0.46
NCC1CCN(c2ccc(S(=O)(=O)N[C@@H](CN)CO)c(S(N)(=O)=O)c2-c2nn[nH]n2)CC1 [Example 189, (S)-N1-(1-amino-3-hydroxypropan-2-yl)-4-(4-(aminomethyl)piperidin-1-yl)-3-(2H-tetrazol-5-yl)benzene-1,2-disulfonamide]	0.06	0.77	0.78	0.39	0.78	0.3	0.78	2.00	0.39	2.31
NC[C@@H](O)CNS(=O)(=O)c1ccc(N2CC[C@H](CN)[C@H](O)C2)c(-c2nn[nH]n2)c1S(N)(=O)=O [Example 9, N^1—((R)-3-amino-2-hydroxypropyl)-4-(cis-4-(aminomethyl)-3-hydroxypiperidin-1-yl)-3-(2H-tetrazol-5-yl)benzene-1,2-disulfonamide]	0.26	15.5	0.78	0.39	1.56	3.46	1.56	2.00	0.78	6.41
NCC1CCN(c2ccc(S(=O)(=O)N[C@@H]3CCNC3)c(S(N)(=O)=O)c2-c2nn[nH]n2)C(=O)C1 (stereo partly shown) [Example 149]	0.96	104	1.56	0.20	1.56	4.46	6.25	2.00	3.13	48.1
NS(=O)(=O)c1c(S(=O)(=O)N[C@@H]2CCNC2)ccc(N2CCC3(CC2)CNC3)c1-c1nnn[nH]1 [Example 52, (R)-N1-(pyrrolidin-3-yl)-4-(2,7-diazaspiro[3.5]no-nan-7-yl)-3-(1H-tetrazol-5-yl)benzene-1,2-disulfonamide]	0.5	3.06	1.56	0.78	1.56	0.48	0.78	1.00	0.78	8.18
NS(=O)(=O)c1c(S(=O)(=O)N[C@@H]2CCNC2)ccc(N2CCC(F)(CO)CC2)c1-c1nnn[nH]1 [Example 91, 4-[4-fluoro-4-(hydroxymethyl)piperidin-1-yl]-N1-[(3R)-pyrrolidin-3-yl]-3-(1H-tetrazol-5-yl)benzene-1,2-disulfonamide]	0.47	1.26	3.13	3.13	6.25	0.42	3.13	2.00	1.56	1.65
NS(=O)(=O)c1c(S(=O)(=O)N[C@@H]2CCNC2)ccc(N2CCC(CO)CC2)c1-c1nnn[nH]1 [Example 101, 4-[4-(hydroxymethyl)piperidin-1-yl]-N1-[(3R)-pyrrolidin-3-yl]-3-(1H-tetrazol-5-yl)benzene-1,2-disulfonamide]	0.09	0.16	1.56	0.78	3.13	0.08	1.56	2.00	0.78	0.39
CC(=O)N[C@@H]1CCN(c2ccc(S(=O)(=O)N[C@@H]3CCNC3)c(S(N)(=O)=O)c2-c2nnn[nH]2)C1 [Example 95, N-[(3R)-1-{4-[(3R)-pyrrolidin-3-ylsulfamoyl]-3-sulfamoyl-2-(1H-tetrazol-5-yl)phenyl}pyrrolidin-3-yl]acetamide]	1.42	1.55	6.25	6.25	12.50	4.31	6.25	2.00	3.13	6.09
NS(=O)(=O)c1c(S(=O)(=O)N[C@@H]2CCNC2)ccc(N2CCOC(CCO)C2)c1-c1nnn[nH]1 (stereo partly drawn) [Example 105, 4-[2-(2-hydroxyethyl)morpholin-4-yl]-N1-[(3R)-pyrrolidin-3-yl]-3-(1H-tetrazol-5-yl)benzene-1,2-disulfonamide]	0.96	1.16	6.25	6.25	12.50	0.25	12.50	2.00	6.25	1.79
N[C@@H]1CCCN(c2ccc(S(=O)(=O)N[C@@H]3CCNC3)c(S(N)(=O)=O)c2-c2nn[nH]n2)C1=O [Example 155]	2.14	81.4	3.13	0.39	1.56	5.12	6.25	2.00	3.13	6.87
C[C@H](CN)NS(=O)(=O)c1ccc(N2CCC(CCN)CC2)c(-c2nn[nH]n2)c1S(N)(=O)=O [Example 185, (R)-4-(4-(2-aminoethyl)piperidin-1-yl)-N1-(1-aminopropan-2-yl)-3-(2H-tetrazol-5-yl)benzene-1,2-disulfonamide]	0.04	0.6	1.56	0.78	1.56	0.33	0.78	1.00	0.78	0.71
NC[C@@H](O)CNS(=O)(=O)c1ccc(N2CCC(c3c[nH]cn3)CC2)c(-c2nnn[nH]2)c1S(N)(=O)=O [Example 169, (R)-4-(4-(1H-imidazol-4-yl)piperidin-1-yl)-N1-(3-amino-2-hydroxypropyl)-3-(1H-tetrazol-5-yl)benzene-1,2-disulfonamide]	0.1	0.26	1.17	0.39	2.34	0.23	0.78	1.00	0.78	0.4
